Assay results from patent US5162328A, “N-[3-[2-(1H-imidazol-1-yl)ethoxy]phenyl]-4-(2-thienyl)-2-pyrimidinamine and pharmacologically acceptable salts” (American Cyanamid Company, priority 1991, dated 1992).
Where two headings read alike, the source gives them in different places.

Assay: Pharmacokinetics in dogs (plasma concentration by HPLC)
Type: in vivo, dog (beagle)
Details: dog, plasma, po, 2 mg/kg/day; for AUC(0-t) / Cmax / Tmax / half-life / AUC(0-inf) / concentration at 0.5 h / concentration at 1 h / concentration at 2 h / concentration at 4 h: 2 mg/kg/day PO; for AUC(0-inf): read-out: AUCO- (to infinite time)
Protocol: Since dogs are used in toxicology studies of antiasthma compounds, this species is chosen for pharmacokinetic evaluations. Use of the dog permits the pharmacokinetic comparison of 2 or more compounds in the same test animal, an evaluation which could not be conveniently performed in a smaller species. For each test compound, normal dogs are given a dose of 2.0 mg/kg/day for 5 consecutive days. There is a washout period of 1 month between the study of each of the test compounds in the same four dogs. Each test compound is administered as a solution of 5 mg/ml in either 0.05 or 0.1N HCl which is dispensed into a gelatin capsule immediately prior to dosage.
Heparinized blood samples are obtained from each animal on the first, third and fifth day of dosage at 0.5, 1.0, 2.0, 4.0, 7.0, 12.0 and 24.0 hours after the dose. The samples are centrifuged immediately to obtain plasma which is frozen until analyzed.
Analysis of plasma is performed using High Performance Liquid Chromatography (HPLC). The analytical procedure is essentially identical for each compound. The internal standard used for N-[3-[2-(1H-imidazol-1-yl)ethoxy]phenyl]-4-(2-thienyl)2-pyrimidinamine is 2-chloro-11-(4-methyl-1-piperazinyl)dibenz[b,f][1,4]oxazepine succinate, while for 2-methyl-N^4 -[4-(4-pyridinyl)-2-pyrimidinyl]-1,4-benzenediamine dihydrochloride and N-[4-[2-(diethylamino)ethoxy]phenyl]-4-(4-pyridinyl)-2-pyrimidnamine dihydrochloride the internal standard is 7-ethoxy-coumarin. In a typical procedure, a 0.4 ml volume of acetonitrile containing internal standard is added a 0.2 ml volume of serum. The sample is mixed by vortexing and centrifuged. The clear protein free supernatent fluid is decanted into a clean tube and evaporated to dryness. The dry residue is dissolved in 0.2 ml of HPLC mobile phase and 50 ul of this solution injected. Peaks corresponding to the test compound being measured and to the internal standard compound are quantitated by their absorption of ultraviolet light at 280 nm. Each set of analytical samples is accompanied by the analysis of a group of standard dog plasma samples prepared to contain amounts of the compound being measured which encompasses the concentration range of the samples.
Four normal beagle dogs weighing between 9.2 and 10.2 Kg are used in the study.

## Cc1cc(Nc2nccc(-c3ccncc3)n2)ccc1N.Cl.Cl [Compound 2, 2-methyl-N^4-[4-(4-pyridinyl)-2-pyrimidinyl]-1,4-benzenediamine dihydrochloride, reference compound]
Dog 3, day 3
  AUC(0-t): 477 ng·h/mL
  Cmax: 387 ng/mL
  Tmax: 30 min
  half-life: 61.2 min
  AUC(0-inf): 635 ng·h/mL
Dog 3, day 5, 0.5 h
  concentration at 0.5 h: 105 ng/mL
Dog 3, day 5, 1 h
  concentration at 1 h: 289 ng/mL
Dog 3, day 5, 2 h
  concentration at 2 h: < 30 ng/mL
Dog 3, day 5, 4 h
  concentration at 4 h: < 30 ng/mL
Dog 3, day 5
  AUC(0-t): 125 ng·h/mL
  Cmax: 289 ng/mL
  Tmax: 60 min
  AUC(0-inf): 449 ng·h/mL
Dog 4, day 1, 0.5 h
  concentration at 0.5 h: 482 ng/mL
Dog 4, day 1, 1 h
  concentration at 1 h: 206 ng/mL
Dog 4, day 1, 2 h
  concentration at 2 h: < 30 ng/mL
Dog 4, day 1, 4 h
  concentration at 4 h: < 30 ng/mL
Dog 4, day 1
  AUC(0-t): 399 ng·h/mL
  Cmax: 482 ng/mL
  Tmax: 30 min
  AUC(0-inf): 630 ng·h/mL
Dog 4, day 3, 0.5 h
  concentration at 0.5 h: 283 ng/mL
Dog 4, day 3, 1 h
  concentration at 1 h: 44 ng/mL
Dog 4, day 3, 2 h
  concentration at 2 h: < 30 ng/mL
Dog 4, day 3, 4 h
  concentration at 4 h: < 30 ng/mL
Dog 4, day 3
  AUC(0-t): 175 ng·h/mL
  Cmax: 283 ng/mL
  Tmax: 30 min
  AUC(0-inf): 224 ng·h/mL
Dog 4, day 5, 0.5 h
  concentration at 0.5 h: 420 ng/mL
Dog 4, day 5, 1 h
  concentration at 1 h: < 30 ng/mL
Dog 4, day 5, 2 h
  concentration at 2 h: < 30 ng/mL
Dog 4, day 5, 4 h
  concentration at 4 h: < 30 ng/mL
Dog 4, day 5
  AUC(0-t): 105 ng·h/mL
  Cmax: 420 ng/mL
  Tmax: 30 min
  AUC(0-inf): 575 ng·h/mL
Mean of 4 dogs, day 1, 0.5 h
  concentration at 0.5 h: 509 ng/mL
Mean of 4 dogs, day 1, 1 h
  concentration at 1 h: 221 ng/mL
Mean of 4 dogs, day 1, 2 h
  concentration at 2 h: 74 ng/mL
Mean of 4 dogs, day 1, 4 h
  concentration at 4 h: < 30 ng/mL
Mean of 4 dogs, day 3, 0.5 h
  concentration at 0.5 h: 326 ng/mL
Mean of 4 dogs, day 3, 1 h
  concentration at 1 h: 175 ng/mL
Mean of 4 dogs, day 3, 2 h
  concentration at 2 h: 66 ng/mL
Mean of 4 dogs, day 3, 4 h
  concentration at 4 h: < 30 ng/mL
Mean of 4 dogs, day 5, 0.5 h
  concentration at 0.5 h: 249 ng/mL
Mean of 4 dogs, day 5, 1 h
  concentration at 1 h: 156 ng/mL
Mean of 4 dogs, day 5, 2 h
  concentration at 2 h: < 30 ng/mL
Mean of 4 dogs, day 5, 4 h
  concentration at 4 h: < 30 ng/mL
Mean, day 1
  AUC(0-t): 458 ng·h/mL
  Cmax: 509 ng/mL
  Tmax: 30 min
  half-life: 39 min
  AUC(0-inf): 599 ng·h/mL
Mean, day 3
  AUC(0-t): 354 ng·h/mL
  Cmax: 326 ng/mL
  Tmax: 30 min
  half-life: 57.6 min
  AUC(0-inf): 460 ng·h/mL
Mean, day 5
  AUC(0-t): 178 ng·h/mL
  Cmax: 334 ng/mL
  Tmax: 45 min
  AUC(0-inf): 407 ng·h/mL
Derived from mean of half-life values, read-out: elimination constant (converted)
  k el: 0.000248 s⁻¹
